Columns and labels:
[1] = Light stability (photobleaching) of the endoperoxide under continuous excitation light; format: physicochemical; settings: 5.0 μM aqueous solution, 0.1 M phosphate buffer (pH 7.4), 0.1% DMSO, excitation light 491 nm, 37° C., fluorescence at 520 nm
Method: 5.0 μM aqueous solutions of DMAX-EP (endoperoxide of Compound 11 in the above scheme) and DPAX-1-EP (endoperoxide of Compound 13 described in International Patent Publication WO99/51586, Example 1) [0.1 M phosphate buffer (pH 7.4) containing 0.1% DMSO as a cosolvent]were each placed in a fluorescent cell and exposed to an excitation light of 491 nm at 37° C. with stirring, and fluorescence was measured at 520 nm by using a fluorometer while the solution was continuously exposed to the excitation light.

[2] = Measurement of singlet oxygen generated by naphthalene endoperoxide EP-1 (fluorescence)
Method: Singlet oxygen was generated continuously with time under a neutral condition at 37° C. in given amounts by using a naphthalene endoperoxide compound EP-1 (Saito, I, et al., J. Am. Chem. Soc., 107, pp. 6329-6334, 1985) as a singlet oxygen generation system. Fluorescence was measured in the presence of DMAX and DPAX-1 [100 mM phosphate buffer (pH 7.4), DMSO (0.1%)].

SMILES	Photobleaching, times slower than that of DPAX-1-EP [1] [times]	Increase of fluorescence intensity with 0.5 mM EP-1 compared with 10 mM EP-1 in the presence of DPAX-1 ([2]; 100 mM phosphate buffer (pH 7.4), DMSO (0.1%), 37° C.)	Fluorescence intensity on generation of singlet oxygen ([2]; EP-1 increased from 0.1 mM to 0.5 mM and to 1.0 mM, 100 mM phosphate buffer (pH 7.4), DMSO (0.1%), 37° C.)	Sensitivity for singlet oxygen compared with DPAX-1 ([2]; EP-1 singlet oxygen generation system, pH 7.4, 37° C.)
CC12OOC(C)(c3ccccc31)c1cc(-c3c4ccc(=O)cc-4oc4cc(O)ccc34)c(C(=O)O)cc12 (stereo not shown) [DMAX-EP]	54	–	–	–
Cc1c2ccccc2c(C)c2cc(-c3c4ccc(=O)cc-4oc4cc(O)ccc34)c(C(=O)O)cc12 [DMAX]	–	far larger	increase of fluorescence intensity dependent on the generated amount of singlet oxygen	much higher sensitivity

Source: patent US20050123478A1, “Agent for measurement of singlet oxygen” (Daiichi Pure Chemicals Co., Ltd, priority 2000, published 2005)
